Here are results for 2 substances from US20260092085A1, “SYNTHETIC TRIPLEX PEPTIDE NUCLEIC ACID-BASED INHIBITORS FOR CANCER THERAPY” (University of Connecticut, priority 2022, published 2026).

{RR} = two arginine residues at the PNA terminus

One series has as its system miR-155. Put plainly: miR-155 gene expression in U2932 tumor samples after in vivo treatment. The arrangement: species or system NSG mice. The note with it: U2932 xenograft, intra-tumoral. Here is the method:
FIGS. 22A-D show in vivo gene expression and protein level analysis. (22A) miR-155 gene expression levels in U2932 tumor samples after in vivo treatment with indicated PNAs. Data was normalized with average control U6 (n=4, data represented as mean±standard error mean). ***p<0.001 (22B) Gene expression level of downstream target genes of miR-155: MCL1 in U2932 tumor samples after treatment with total 3 mg kg-1 dose of Scr-γtcPNA-155, PNA-155, γPNA-155 and γtcPNA-155 and normalized with average control GAPDH (n=3, data represented as mean±SEM), unpaired two-tailed t-test was performed for analysis). *p<0.05, **p<0.01 (22C) Representative western blot of Mcl-1 protein and its quantification (n=3 technical replicate) in U2932 tumor samples treated with total 3 mg kg-1 dose of Scr-γtcPNA-155, PNA-155 and γtcPNA-155. Data is represented as mean±SEM and unpaired two-tailed t-test was performed for analysis. *p<0.05. The relative protein levels were determined from the band intensity using ImageJ software and normalized relative to loading control and treatment control. (22D) Gene expression level of tumor suppressor proteins (FOXO3A, CUX1, SOCS1, CSF1R, JARID2, SHIP1, PICALM, PDCD4, BACH1, CASP3) in U2932 tumor samples after treatment with total 3 mg kg-1 dose of Scr-γtcPNA-155, PNA-155, γPNA-155 and γtcPNA-155 and normalized with average control GAPDH (n=3, data represented as mean±SEM, unpaired two-tailed t-test was performed for statistical analysis). *p<0.05, **p<0.01.
RNA and Protein extraction from tumor samples: The mice were injected intra-tumorally with 1 mg kg-1 dose of PNA-155, γtcPNA-155, γPNA-155, Scr-γtcPNA-155 or were untreated. The injections were repeated two additional times after 1 week each. The length, breadth, and depth of the tumors were measured daily using a vernier caliper. The mice were euthanized when the tumor volumes reached 2000 mm^3. The resected tumor sections were finely minced using a sterile blade and suspended in dissociation media (4 ml) comprising of RPMI-1640, 1.2 mg/ml dispase, and 0.5 mg/ml collagenase for 90 mins at 500 rpm at 37° C. The dissociated tumors were washed with buffer saline at 2500 rpm (4 mins) at 4° C. and then suspended in 0.25% trypsin for 4 mins at room temperature. RPMI 1640 media was added to the trypsinized tumor mass, and the cells were passed through a 70 um filter. The cells were centrifuged at 2500 rpm for 4 mins at 4° C. The cell pellet was then suspended in 1×RBC lysis buffer (Sigma) and incubated on ice for 10 mins. PBS was added to the cells and the cells were passed through a 40 um filter. The cells were centrifuged at 2500 rpm for 4 mins at 4° C. The cell pellet was resuspended in 0.5% BSA in PBS. […]

A further series has as its system PBMC cells. The series is described as follows: Safety assessment by trypan blue assay in PBMC. The series is classed as cell-based. To be noted: 500-4000 nM, 48 hours. As to the method:
Control is PBS treated PBMC cells. n=3, data represented as mean±standard error mean (SEM).
Safety assessment by trypan blue assay […] blood mononuclear cells (PBMC) (ATCC® PCS-800-011™) were purchased from ATCC (Virginia, USA). The cells were regularly tested for Mycoplasma contamination using MycoAlert™ Mycoplasma detection kit (Lonza). All the cells used in the experiment were passaged less than 2 times. 10,000 PBMC cells were seeded in a 96 well plate. The cells were treated with 500 nM, 1000 nM, 2000 nM and 4000 nM PNA-155 and γtcPNA-155 for 48 hrs in an incubator. The dead cells were examined with trypan blue and further counted using an automated cell counter (Bio-rad).

On to “PNA-155: conventional full-length regular PNA (23mer), RR-ACCCCTATCACGATTAGCATTAA-RR, SEQ ID NO: 1 (all peptide nucleic acid (PNA), 5' {RR}, 3' {RR}) [reference compound]”, for which, in the series with miR-155, the “decrease in miR-155 gene expression in tumors” value is listed as 75%. Besides, the “viability of PBMC cell lines” value in the series on PBMC cells is “did not notice a significant reduction in viability”.
“γtcPNA-155: serine gamma tail-clamp anti-miR-155 PNA, RR-TJJJJ-OOO-ACCCCTATCACGATTAGCATTAA-RR, SEQ ID NO: 3 (all peptide nucleic acid (PNA); serine gamma PNA, tail-clamp TJJJJ via linkers, Arg-Arg at both ends)”: in the series on miR-155, the “decrease in miR-155 gene expression in tumors” value is recorded as 90%. Further, the “viability of PBMC cell lines” value in the series with PBMC cells is listed as “did not notice a significant reduction in viability”.
